Test results from paper PMC6877910, “Astrocyte-Targeted Transporter-Utilizing Derivatives of Ferulic Acid Can Have Multifunctional Effects Ameliorating Inflammation and Oxidative Stress in the Brain” (Oxidative Medicine and Cellular Longevity, 2019).
Values joined by “and” are separate entries in the source; they are usually repeats but may differ in a detail not shown here. Equal values may be shown once.

Key:
[1] = molecular target: T1, butyrylcholinesterase (BChE) (Mus musculus, UniProt Q03311); assay: biochemical; type: biochemical; settings: mouse brain S9 subcellular fraction, 30 min end point, mean ± SD, n = 3; for IC50: read-out: BuChE IC50 value
T1 construct: mouse brain S9 fraction was prepared by homogenizing freshly collected mouse brain; from tissue; host or cells: mouse brain S9 fraction (9 000 x g supernatant)
Experimental: (§1) Briefly, mouse brain S9 fraction was prepared by homogenizing freshly collected mouse brain with 50 mM Tris-buffered saline (TBS) (pH 7.4) (1 : 4, w/v), centrifuging the homogenate at 9 000 × g for 20 min at 4°C and collecting the supernatant. The supernatant was then diluted at 1 : 10 with phosphate-buffered saline (100 mM; pH 7.0) and mixed with Ellman's reagent (5,5′-dithiobis-(2-nitrobenzoic acid); DTNB; 1 mM) and studied compounds in DMSO (DMSO concentration was less than 0.5%) on a 96-well plate as 3 parallel assays.

[2] = molecular target: T2, acetylcholinesterase (AChE) (Mus musculus, UniProt P21836); assay: biochemical; type: biochemical; settings: for Vmax of AChE activity in the presence of derivative (Hanes-Woolf plot): 16-66 μM derivative, Crtl Vmax = 2.21
T2 construct: mouse brain S9 fraction was prepared by homogenizing freshly collected mouse brain; from tissue; host or cells: mouse brain S9 fraction (9 000 x g supernatant)
T2 sequence (P21836 32-614): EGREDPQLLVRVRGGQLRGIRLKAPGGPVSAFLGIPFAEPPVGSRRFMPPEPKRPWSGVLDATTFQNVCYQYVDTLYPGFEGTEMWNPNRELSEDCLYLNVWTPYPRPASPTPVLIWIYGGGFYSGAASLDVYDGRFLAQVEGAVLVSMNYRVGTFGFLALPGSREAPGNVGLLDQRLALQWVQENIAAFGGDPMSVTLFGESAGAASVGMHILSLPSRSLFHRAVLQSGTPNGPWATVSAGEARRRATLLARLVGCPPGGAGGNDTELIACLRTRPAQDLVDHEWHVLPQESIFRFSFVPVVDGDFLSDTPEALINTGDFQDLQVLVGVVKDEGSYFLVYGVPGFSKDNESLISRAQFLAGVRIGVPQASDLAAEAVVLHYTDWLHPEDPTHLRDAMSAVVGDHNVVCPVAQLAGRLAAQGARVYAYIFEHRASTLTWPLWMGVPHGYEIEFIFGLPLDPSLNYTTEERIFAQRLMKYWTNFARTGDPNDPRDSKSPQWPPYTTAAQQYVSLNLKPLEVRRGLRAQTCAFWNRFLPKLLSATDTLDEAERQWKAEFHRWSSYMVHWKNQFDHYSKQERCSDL
Experimental: as §1
According to the Hanes-Woolf plots, the ratio of initial substrate concentration to the reaction velocity ([S]/v) was plotted against the substrate concentration (μM).

LAT1 = molecular target: T3, LAT1 (Mus musculus, UniProt Q9Z127); assay: Ability to bind LAT1: inhibition of [14C]-L-leucine uptake in mouse primary astrocytes; type: cell-based; settings: mean ± SD; for IC50: n = 3-4, read-out: IC50 in astrocytes (LAT1-probe substrate [14C]-L-leucine uptake)
T3 construct: mouse primary astrocytes, from which we have recently characterized LAT1 expression and function; endogenous in cells; host or cells: mouse primary astrocytes (cortex and hippocampi of 2-day-old wild-type and APP/PS1 mice)
Experimental: For the transporter binding studies, the astrocytes were seeded on 24-well plates with a density of 10 × 10^4 cells/well three days before the experiments. After removal of the culture medium, the cells were carefully washed with prewarmed HBSS (Hank's balance salt solution) containing choline chloride (125 mM), KCl (4.8 mM), MgSO4 (1.2 mM), KH2PO4 (1.2 mM), CaCl2 (1.3 mM), glucose (5.6 mM), and HEPES (25 mM) adjusted to pH 7.4 with 1 M NaOH. The cells were preincubated with 500 μL of prewarmed HBSS at 37°C for 10 min before the experiments. To study the ability of studied compounds to inhibit the uptake of a known LAT1 substrate, the cells were incubated at 37°C for 5 min with an uptake buffer (HBSS, 250 μL) containing 0.76 μM (0.25 mCi/mL or 9.85 MBq/mL) of [^14C]-L-leucine (PerkinElmer, Inc., Waltham, MA, USA) and 0.1-1000 μM of studied compound (or HBSS as blank). After incubation, the uptake was stopped by adding 500 μL of ice-cold HBSS and the cells were washed two times with ice-cold HBSS. The cells were then lysed with 500 μL of NaOH (0.1 M) for 60 min, and the lysate was mixed with 3.5 mL of Emulsifier safe cocktail (Ultima Gold, PerkinElmer, Inc., Waltham, MA, USA). The radioactivity in the cells was measured by liquid scintillation counting (MicroBeta^2 counter, PerkinElmer, Inc., Waltham, MA, USA). Half of maximum inhibitory concentration (IC50) values were calculated by nonlinear regression analysis (fitting the curve to log (concentration) vs. remaining normalized […]).

mTOR = assay: Total amount of mTOR (ELISA) in cells; type: cell-based, mouse; settings: 100 μM; 48 h
Experimental: Enzyme-Linked Immunosorbent Assay (ELISA) kits were used (mTOR SimpleStep ELISA Kit and NFκB p65 Total SimpeStep ELISA Kit, Abcam, Cambridge, UK) to quantify mammalian (or mechanistic) target of rapamycin (mTOR) and transcription factor NF-κB amounts, respectively. […] The control wells were treated with the solvent only (0.5% DMSO). Cells were solubilized using the provided extraction buffer with the kit, incubated on ice for 20 minutes and centrifuged at 18 000 × g for 20 min at 4°C. The supernatants were stored at -80°C till the day of the analysis. Standards and samples were then analyzed following the manufacturer's protocol (ELISA sandwich method) and by reading the absorbance with the EnVision plate reader (EnVision, PerkinElmer, Inc., Waltham, MA, USA) at 450 nm. The results were analyzed as pmol of formed mTOR or NF-κB per mL.

[3] = mouse brain S9 subcellular fraction, 30 min end point, mean ± SD, n = 3

T3 sequence (Q9Z127 whole entry): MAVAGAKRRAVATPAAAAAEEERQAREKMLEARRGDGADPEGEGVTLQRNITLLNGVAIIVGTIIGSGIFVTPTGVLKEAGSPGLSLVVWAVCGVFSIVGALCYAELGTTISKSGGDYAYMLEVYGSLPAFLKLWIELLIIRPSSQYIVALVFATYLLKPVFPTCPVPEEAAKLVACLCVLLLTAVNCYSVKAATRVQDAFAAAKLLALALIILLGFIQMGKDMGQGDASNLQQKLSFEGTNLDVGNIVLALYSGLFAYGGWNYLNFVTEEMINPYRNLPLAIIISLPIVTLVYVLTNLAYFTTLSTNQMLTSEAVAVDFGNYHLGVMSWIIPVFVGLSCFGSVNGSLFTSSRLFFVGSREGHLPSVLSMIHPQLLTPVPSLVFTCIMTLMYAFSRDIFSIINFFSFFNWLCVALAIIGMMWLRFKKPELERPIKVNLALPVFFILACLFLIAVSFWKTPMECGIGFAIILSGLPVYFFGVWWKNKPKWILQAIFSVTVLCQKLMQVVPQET
T3 sequence (P10852 whole entry partner): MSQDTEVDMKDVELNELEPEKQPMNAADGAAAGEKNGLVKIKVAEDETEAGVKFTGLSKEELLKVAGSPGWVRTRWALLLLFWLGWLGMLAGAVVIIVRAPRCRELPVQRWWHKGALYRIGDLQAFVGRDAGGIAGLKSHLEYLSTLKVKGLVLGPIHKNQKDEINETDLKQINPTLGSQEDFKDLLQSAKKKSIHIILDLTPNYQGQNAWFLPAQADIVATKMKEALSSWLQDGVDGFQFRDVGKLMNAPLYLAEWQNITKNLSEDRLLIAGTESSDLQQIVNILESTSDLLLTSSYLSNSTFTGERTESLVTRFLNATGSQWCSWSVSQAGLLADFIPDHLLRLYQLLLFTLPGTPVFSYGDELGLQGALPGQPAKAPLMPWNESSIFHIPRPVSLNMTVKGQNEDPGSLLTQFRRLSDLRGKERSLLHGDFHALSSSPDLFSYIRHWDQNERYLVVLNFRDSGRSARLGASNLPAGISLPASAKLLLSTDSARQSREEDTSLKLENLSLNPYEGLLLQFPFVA
T1 sequence (Q03311 30-603): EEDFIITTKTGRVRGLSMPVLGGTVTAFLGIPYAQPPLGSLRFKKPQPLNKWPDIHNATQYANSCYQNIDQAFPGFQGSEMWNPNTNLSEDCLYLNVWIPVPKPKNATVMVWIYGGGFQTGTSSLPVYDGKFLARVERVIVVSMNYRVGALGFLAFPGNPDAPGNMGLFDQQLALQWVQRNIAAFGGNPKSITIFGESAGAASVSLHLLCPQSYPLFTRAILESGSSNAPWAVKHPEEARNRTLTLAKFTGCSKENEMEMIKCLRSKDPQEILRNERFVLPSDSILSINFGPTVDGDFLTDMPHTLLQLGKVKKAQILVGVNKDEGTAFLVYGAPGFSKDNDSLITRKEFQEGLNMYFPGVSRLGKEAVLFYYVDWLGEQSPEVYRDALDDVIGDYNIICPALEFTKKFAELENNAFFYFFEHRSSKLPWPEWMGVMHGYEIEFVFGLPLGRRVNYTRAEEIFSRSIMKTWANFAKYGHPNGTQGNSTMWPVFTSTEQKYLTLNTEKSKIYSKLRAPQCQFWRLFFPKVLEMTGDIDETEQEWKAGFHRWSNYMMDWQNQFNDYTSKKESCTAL

| Structure (SMILES) | BuChE IC50 value [1] | IC50 [2, 3] [µM] | IC50 (LAT1) | Reduction of total amount of mTOR (mTOR) | AChE IC50 value [2, 3] | IC50 in astrocytes (LAT1-probe substrate [14C]-L-leucine uptake) (LAT1; n = 3-4) | IC50 [1] [µM] | Vmax of AChE activity in the presence of derivative (Hanes-Woolf plot) [2] [nmol/min/mg] | Increase of the amount of mTOR (mTOR) |
| --- | --- | --- | --- | --- | --- | --- | --- | --- | --- |
| COc1cc(C=CC(=O)Nc2cccc(CC(N)C(=O)O)c2)ccc1O (stereo not drawn) [FA-derivative 2] | No inhibition | 25.2 ± 1.43 | 8.9 ± 1.25 µM | approximately 32% | – | – | – | – | – |
| COc1cc(/C=C/C(=O)O)ccc1O [FA, trans-4-hydroxy-3-methoxycinnamic acid, reference compound] | No inhibition | – | – | did not affect | No inhibition | No inhibition | – | – | – |
| COc1cc(C=CC(=O)Oc2cccc(CC(N)C(=O)O)c2)ccc1O (stereo not drawn) [FA-derivative 3] | – | 66.2 ± 1.23 | 28.7 ± 1.15 µM | approximately 14% | – | – | 236.1 ± 1.26 | 2.09 | – |
| COc1cc(C=CC(=O)NCc2cccc(CC(N)C(=O)O)c2)ccc1O (stereo not drawn) [FA-derivative 1] | – | 16.3 ± 1.52 | 2.2 µM and 2.15 µM | – | – | – | 220.8 ± 1.14 | 2.12 | approximately 28% |
